Experiment [1] relates to phosphorylation of RNA Polymerase II (RNAPII) at the Ser2 site in MCF7 cells. As to the kind of experiment: MCF7 pSer2 RNAPII MOA assay (immunofluorescence). The settings on record: Homo sapiens, MCF7, 6 h, 6-hr treatment, read-out: p-Ser 2 RNAPII (IC50). In kind it is cell-based. The procedure, abridged: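 Phospho-Ser2 RNAPII was measured by immunofluorescence (Alexa Fluor 488, DAPI counterstain) with plate cytometer read-out. Before staining, cells were fixed with paraformaldehyde and permeabilized with Triton. Exposure was 6 h at 37° C. to CDK9 inhibitors over 7 points (3 μM to 0.004 μM) in MCF7 cells seeded at 2500/well the previous day.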

The target of experiment [2] is T1, CDK9/CycT1 (Homo sapiens (Human), UniProt P50750). Kind of experiment: CDK9 kinase assay, high ATP concentration (5 mM ATP). In kind it is biochemical. The settings on record: 1.5 nM CDK9, read-out: CDK9 High ATP conc. (IC50). The procedure, abridged: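 Caliper mobility-shift read-out of phosphorylated vs unphosphorylated FITC-peptide (1.5 μM), giving percent turnover. Final 1.5 nM CDK9/CycT1 and 5 mM ATP in 50 mM HEPES pH 7.2, 1 mM DTT, 10 mM MgCl2; compound preincubated 15 min, reaction 90 min at 25° C, stopped with EDTA.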

In a further experiment the test system is MV411 cells. As to the kind of experiment: MV411 caspase activity assay (Caspase-Glo 3/7). In kind it is cell-based. The settings on record: Homo sapiens, MV4-11, 6 h, 6-hr treatment, caspase 3/7 induction. The procedure, abridged: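 MV411 AML cells (3000/well) were plated overnight, then treated with compound for 6 h at 37 °C. Caspase-3/7 activity was read as luminescence after 30 min with Caspase-Glo 3/7 reagent at room temperature.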

Experiment [3] deals with T1, CDK9/CycT1. As to the kind of experiment: CDK9 kinase assay, ATP concentration at Km (mobility shift, Caliper LC3000). In kind it is biochemical. The settings on record: 6 μM ATP, 3 nM CDK9/CycT1; read-out: CDK9 ATP conc. at Km (IC50). The procedure, abridged:
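[…], compound sat 15 min with enzyme mix: 3 nM CDK9/CycT1, 1.5 µM FITC-GSRTPMY substrate, 6 µM ATP, pH 7.2 HEPES buffer.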

pIC50: −log10 of the molar value.

Drawing on patent US10717746B2, “Chemical compounds” (ASTRAZENECA AB, priority 2015, dated 2020), this text covers IC50 for 18 compounds.

By pIC50 is commonly meant the negative decadic logarithm of the IC50, by convention in mol/L.

T1 sequence (P50750 whole entry): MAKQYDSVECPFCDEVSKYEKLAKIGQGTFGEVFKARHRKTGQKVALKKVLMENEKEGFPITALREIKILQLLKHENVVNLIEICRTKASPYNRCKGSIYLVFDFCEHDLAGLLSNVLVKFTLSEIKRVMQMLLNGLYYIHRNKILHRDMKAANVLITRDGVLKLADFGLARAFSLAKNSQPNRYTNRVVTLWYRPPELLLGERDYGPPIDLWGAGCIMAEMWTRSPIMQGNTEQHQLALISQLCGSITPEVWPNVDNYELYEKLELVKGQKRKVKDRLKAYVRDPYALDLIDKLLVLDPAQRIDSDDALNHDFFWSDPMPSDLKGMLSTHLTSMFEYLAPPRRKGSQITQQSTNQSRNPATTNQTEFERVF
T1 sequence (O60563 whole entry partner): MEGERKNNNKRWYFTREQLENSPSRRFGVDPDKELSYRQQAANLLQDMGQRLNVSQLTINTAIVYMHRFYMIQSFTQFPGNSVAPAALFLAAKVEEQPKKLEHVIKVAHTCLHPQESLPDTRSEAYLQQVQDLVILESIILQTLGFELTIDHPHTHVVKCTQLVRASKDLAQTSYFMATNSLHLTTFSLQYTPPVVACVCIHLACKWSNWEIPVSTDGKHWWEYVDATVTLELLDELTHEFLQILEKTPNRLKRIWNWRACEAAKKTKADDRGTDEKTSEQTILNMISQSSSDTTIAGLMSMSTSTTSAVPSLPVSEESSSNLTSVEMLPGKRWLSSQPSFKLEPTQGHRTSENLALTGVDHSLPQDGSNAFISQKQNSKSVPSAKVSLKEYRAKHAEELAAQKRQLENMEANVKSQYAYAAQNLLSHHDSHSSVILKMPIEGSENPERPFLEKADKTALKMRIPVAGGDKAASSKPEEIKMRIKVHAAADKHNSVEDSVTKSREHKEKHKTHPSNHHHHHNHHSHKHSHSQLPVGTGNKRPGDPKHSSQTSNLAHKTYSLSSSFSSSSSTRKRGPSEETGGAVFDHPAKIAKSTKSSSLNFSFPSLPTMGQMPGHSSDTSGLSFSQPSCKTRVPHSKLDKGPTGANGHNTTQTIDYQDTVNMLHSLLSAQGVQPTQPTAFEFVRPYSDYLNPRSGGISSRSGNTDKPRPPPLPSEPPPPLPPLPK

For the compound `CC(C)(C)OC(=O)N[C@@H]1CCC[C@H](C(=O)Nc2cc(-c3cnn4c3CCCC4)c(Cl)cn2)C1` [Example 31a, tert-butyl ((1R,3S)-3-((5-chloro-4-(4,5,6,7-tetrahydropyrazolo[1,5-a]pyridin-3-yl)pyridin-2-yl)carbamoyl)cyclohexyl)carbamate], the pIC50 is 6.77 in experiment [1], 7.80 on CDK9/CycT1 [2], 6.75 in the experiment on MV411 cells and > 8.52 on CDK9/CycT1 [3].

In the case of `O=C(Nc1cc(-c2cnn3c2CCCC3)c(Cl)cn1)[C@H]1CCC[C@@H](NC(=O)C2(O)CC2)C1` [Example 32, (1S,3R)—N-(5-chloro-4-(4,5,6,7-tetrahydropyrazolo[1,5-a]pyridin-3-yl)pyridin-2-yl)-3-(1-hydroxycyclopropanecarboxamido)cyclohexanecarboxamide], the pIC50 in experiment [1] was 7.26; at CDK9/CycT1 [2] it was 7.77; in the experiment on MV411 cells, 6.87; on CDK9/CycT1 [3], > 8.52.

Take `O=C(Nc1cc(-c2cnn3c2CCCC3)c(Cl)cn1)[C@H]1CCC[C@@H](NC(=O)[C@@H]2CCOC2)C1` [Example 33, (R)—N-((1R,3S)-3-((5-chloro-4-(4,5,6,7-tetrahydropyrazolo[1,5-a]pyridin-3-yl)pyridin-2-yl)carbamoyl)cyclohexyl)tetrahydrofuran-3-carboxamide]: the pIC50 was 7.24 in experiment [1], 7.72 at CDK9/CycT1 [2], 6.77 in the experiment with MV411 cells and > 8.52 at CDK9/CycT1 [3].

With `CC1(C(=O)N[C@@H]2CCC[C@H](C(=O)Nc3cc(-c4cnn5c4CCCC5)c(Cl)cn3)C2)COC1` [Example 34, N-((1R,3S)-3-((5-chloro-4-(4,5,6,7-tetrahydropyrazolo[1,5-a]pyridin-3-yl)pyridin-2-yl)carbamoyl)cyclohexyl)-3-methyloxetane-3-carboxamide], the pIC50 was 6.97 in experiment [1], 7.54 at CDK9/CycT1 [2], 6.73 in the experiment on MV411 cells and > 8.52 at CDK9/CycT1 [3].

In the case of `O=C(Nc1cc(-c2cnn3c2CCCC3)c(Cl)cn1)[C@H]1CCC[C@@H](NC(=O)[C@@H]2CCCO2)C1` [Example 35, (S)—N-((1R,3S)-3-((5-chloro-4-(4,5,6,7-tetrahydropyrazolo[1,5-a]pyridin-3-yl)pyridin-2-yl)carbamoyl)cyclohexyl)tetrahydrofuran-2-carboxamide], the negative logarithm of the IC50 (pIC50) in experiment [1] is 7.40; on CDK9/CycT1 [2], 7.64; in the experiment on MV411 cells it was 6.90; on CDK9/CycT1 [3], > 8.52.

As to `O=C(Nc1cc(-c2cnn3c2CCCC3)c(Cl)cn1)[C@H]1CCC[C@@H](NC(=O)[C@H]2CCCO2)C1` [Example 36, (R)—N-((1R,3S)-3-((5-chloro-4-(4,5,6,7-tetrahydropyrazolo[1,5-a]pyridin-3-yl)pyridin-2-yl)carbamoyl)cyclohexyl)tetrahydrofuran-2-carboxamide], the pIC50 in experiment [1] is 7.42; at CDK9/CycT1 [2], 7.41; with MV411 cells it was 6.98; on CDK9/CycT1 [3], > 8.52.

Take `C[C@H](O)C(=O)N[C@@H]1CCC[C@H](C(=O)Nc2cc(-c3cnn4c3CCCC4)c(Cl)cn2)C1` [Example 37, (1S,3R)—N-(5-chloro-4-(4,5,6,7-tetrahydropyrazolo[1,5-a]pyridin-3-yl)pyridin-2-yl)-3-((S)-2-hydroxypropanamido)cyclohexanecarboxamide]: the pIC50 in experiment [1] was 6.83; on CDK9/CycT1 [2], 7.42; in the experiment on MV411 cells, 6.75; on CDK9/CycT1 [3], > 8.52.

In the case of `O=C(Nc1cc(-c2cnn3c2CCCC3)c(Cl)cn1)[C@H]1CCC[C@@H](NC(=O)[C@H]2CCOC2)C1` [Example 38, (S)—N-((1R,3S)-3-((5-chloro-4-(4,5,6,7-tetrahydropyrazolo[1,5-a]pyridin-3-yl)pyridin-2-yl)carbamoyl)cyclohexyl)tetrahydrofuran-3-carboxamide], the pIC50 is 6.91 in experiment [1], 7.55 on CDK9/CycT1 [2], 6.86 with MV411 cells and > 8.52 at CDK9/CycT1 [3].

For `CC(=O)N[C@@H]1CCC[C@H](C(=O)Nc2cc(-c3cnn4c3CC(C)(C)C4)c(C#N)cn2)C1` [Example 39, (1S,3R)-3-acetamido-N-(5-cyano-4-(5,5-dimethyl-5,6-dihydro-4H-pyrrolo[1,2-b]pyrazol-3-yl)pyridin-2-yl)cyclohexanecarboxamide], the negative-log IC50 (pIC50) in experiment [1] was 6.83; on CDK9/CycT1 [2] it was 7.21; in the experiment on MV411 cells, 6.84; on CDK9/CycT1 [3], > 8.52.

With `CC(=O)N[C@@H]1CCC[C@H](C(=O)Nc2cc(-c3cnn4c3CC(C)C4)c(Cl)cn2)C1` (stereo partly drawn) [Example 40, (1S,3R)-3-acetamido-N-(5-chloro-4-(5-methyl-5,6-dihydro-4H-pyrrolo[1,2-b]pyrazol-3-yl)pyridin-2-yl)cyclohexanecarboxamide], the negative-log IC50 (pIC50) is 7.24 in experiment [1], 7.55 at CDK9/CycT1 [2], 7.17 in the experiment on MV411 cells and > 8.52 on CDK9/CycT1 [3].

With `CC(=O)N[C@@H]1CCC[C@H](C(=O)Nc2cc(-c3cnn4c3CC(C)(C)CC4)ccn2)C1` [Example 44, (1S,3R)-3-acetamido-N-(4-(5,5-dimethyl-4,5,6,7-tetrahydropyrazolo[1,5-a]pyridin-3-yl)pyridin-2-yl)cyclohexanecarboxamide], the pIC50 in experiment [1] is 7.32; on CDK9/CycT1 [2], 8.10; with MV411 cells, 7.41; at CDK9/CycT1 [3] it was > 8.52.

On to `CC1(C)Cc2c(-c3cc(NC(=O)[C@H]4CCC[C@@H](NC(=O)[C@@H]5CCCO5)C4)ncc3Cl)cnn2C1` [Example 45, (S)—N-((1R,3S)-3-((5-chloro-4-(5,5-dimethyl-5,6-dihydro-4H-pyrrolo[1,2-b]pyrazol-3-yl)pyridin-2-yl)carbamoyl)cyclohexyl)tetrahydrofuran-2-carboxamide], for which the pIC50 is 7.92 in experiment [1], > 8.40 at CDK9/CycT1 [2], 8.10 with MV411 cells and > 8.52 at CDK9/CycT1 [3].

Take `CC1(C)Cc2c(-c3cc(NC(=O)[C@H]4CCC[C@@H](NC(=O)[C@H]5CCCO5)C4)ncc3Cl)cnn2C1` [Example 46, (R)—N-((1R,3S)-3-((5-chloro-4-(5,5-dimethyl-5,6-dihydro-4H-pyrrolo[1,2-b]pyrazol-3-yl)pyridin-2-yl)carbamoyl)cyclohexyl)tetrahydrofuran-2-carboxamide]: the pIC50 was 8.05 in experiment [1], > 8.40 at CDK9/CycT1 [2], 7.92 in the experiment on MV411 cells and > 8.52 on CDK9/CycT1 [3].

Regarding `CC(=O)N[C@@H]1CC[C@H](C(=O)Nc2cc(-c3cnn4c3CC(C)(C)C4)c(Cl)cn2)C1` [Example 48, (1S,3R)-3-acetamido-N-(5-chloro-4-(5,5-dimethyl-5,6-dihydro-4H-pyrrolo[1,2-b]pyrazol-3-yl)pyridin-2-yl)cyclopentanecarboxamide], the pIC50 in experiment [1] was 7.40; on CDK9/CycT1 [2], 8.52; with MV411 cells, 7.82; at CDK9/CycT1 [3], > 8.52.

In the case of `CC(=O)N[C@@H]1CCC[C@H](C(=O)Nc2cc(-c3nnn4c3CCCC4)c(Cl)cn2)C1` [Example 49, (1S,3R)-3-acetamido-N-(5-chloro-4-(4,5,6,7-tetrahydro-[1,2,3]triazolo[1,5-a]pyridin-3-yl)pyridin-2-yl)cyclohexanecarboxamide], the pIC50 in experiment [1] is < 5.54; on CDK9/CycT1 [2], 5.36; in the experiment with MV411 cells, 5.10; on CDK9/CycT1 [3], 7.41.

In the case of `CC(=O)N[C@@H]1CCC[C@H](C(=O)Nc2cc(-c3cnc4n3CC(C)(C)C4)c(F)cn2)C1` [Example 50, (1S,3R)-3-acetamido-N-(4-(6,6-dimethyl-6,7-dihydro-5H-pyrrolo[1,2-a]imidazol-3-yl)-5-fluoropyridin-2-yl)cyclohexanecarboxamide], the negative-log IC50 (pIC50) in experiment [1] is 7.72; at CDK9/CycT1 [2] it was 8.30; in the experiment with MV411 cells, 7.59; at CDK9/CycT1 [3], > 8.52.

Regarding `CC(=O)N[C@@H]1CCC[C@H](C(=O)Nc2cc(-c3cnn4c3CC(C)(C)CC4)c(F)cn2)C1` [Example 51, (1S,3R)-3-acetamido-N-(4-(5,5-dimethyl-4,5,6,7-tetrahydropyrazolo[1,5-a]pyridin-3-yl)-5-fluoropyridin-2-yl)cyclohexanecarboxamide], the pIC50 in experiment [1] is 8.00; on CDK9/CycT1 [2], > 8.52; with MV411 cells, 7.82; at CDK9/CycT1 [3], > 8.52.

Turning to `CC1(C)CCn2ncc(-c3cc(NC(=O)[C@H]4CCC[C@@H](N)C4)ncc3F)c2C1` [Example 51a, (1S,3R)-3-amino-N-(4-(5,5-dimethyl-4,5,6,7-tetrahydropyrazolo[1,5-a]pyridin-3-yl)-5-fluoropyridin-2-yl)cyclohexanecarboxamide], the pIC50 was 6.53 in experiment [1], 6.83 on CDK9/CycT1 [2], 6.64 in the experiment on MV411 cells and > 8.52 at CDK9/CycT1 [3].
